This is an account of results in patent US10336702B2, “Pharmaceutically active compounds” (BERGENBIO ASA, priority 2015, dated 2019).

What is called IC50 is the concentration needed to halve the response being measured.

For one test, the target named is T1, Akt2 (Homo sapiens, UniProt P31751).
T1 construct: unspecified tag, removed (detagged) (cleaved yes); purchased SignalChem and Proteros (Akt2); Merck Millipore (PDK1) 14-452 (PDK1); none given for Akt2
The test can be described thus: Akt activation assay (PDK1-mediated activation, LANCE Ultra crosstide TR-FRET), Akt2. Type of test: biochemical. As to conditions: read-out: Biological Assay 1 IC50 (nM) Akt2. The gist of the method: (§1)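 This TR-FRET readout (Eu-anti-phospho-crosstide antibody, 665/615 nm) measured PDK1-driven activation of Akt. Compound was first preincubated with each Akt isoform: Akt1 5 nM; Akt2 15 nM SignalChem or 5 nM Proteros; Akt3 3 nM SignalChem or 5 nM Proteros. Reactions then ran 30 min with 5 nM PDK1, lipid vesicles containing 0.55 µM PtdIns(3,4,5)P3, 100 µM ATP and 100 nM crosstide at pH 7.5, and IC50 came from a 4-parameter equation.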
(In general: In TR-FRET formats the signal depends on donor and acceptor labels being close together.)

The next test has as its target T2, Akt3 (Homo sapiens, UniProt Q9Y243).
T2 construct: unspecified tag, removed (detagged) (cleaved yes); purchased SignalChem and Proteros (Akt3); Merck Millipore (PDK1) 14-452 (PDK1); none given for Akt3
The test can be described thus: Akt activation assay (PDK1-mediated activation, LANCE Ultra crosstide TR-FRET), Akt3. The class given is biochemical. As to conditions: read-out: Biological Assay 1 IC50 (nM) Akt3. In short, it runs like this: as §1

Another test addresses T3, p-Akt1 in LNCaP cells (Homo sapiens, UniProt P31749).
T3 construct: SureFire assays to detect cellular p-Akt1, p-Akt2 and p-Akt3 levels in WM115 cells (Akt2/3) and LNCaP cells (Akt1); endogenous in cells; host or cells: LNCaP (ECACC 89110211)
Description: Phospho-Akt cellular SureFire assay, p-Akt1 in LNCaP cells. The conditions noted are these: read-out: Biological Assay 2 IC50 (nM) Akt1 LNCaP. The class given is cell-based. An excerpt: (§2) Biological Assay 2: Phospho-Akt (p-Akt) Cellular SureFire Assays
(§3) The following describes SureFire assays to detect cellular p-Akt1, p-Akt2 and p-Akt3 levels in WM115 cells (Akt2/3) and LNCaP cells (Akt1). In the case of Akt2 and Akt3, Streptavidin-coated donor beads capture a biotinylated anti-mouse antibody that in turn recognises a mouse total Akt antibody which is specific to each isoform. The protein A-conjugated acceptor beads capture an antibody that recognises the phosphoprotein. Similarly in the Akt1 kit, the donor and acceptor beads are used to capture each antibody pair consisting of an antibody that specifically recognises Akt1 as well as an antibody that recognises the phosphoprotein. In each case, close proximity of the beads allows energy transfer from donor to acceptor.
AlphaScreen® SureFire™ Phospho-Akt1 (pThr308) Kit from Perkin Elmer (TGRA2S10K)
LNCaP cells (ECACC, 89110211) cultured in RPMI-1640 culture media (Fisher, 10665193) supplemented with 2 mM L-glutamine, 1% sodium pyruvate and 10% FBS
(§4) Cell treatment: 1×10^5 WM115 cells or 5×10^4 LNCaP cells were seeded into each well of a 96 well poly-D-Lysine coated tissue culture plate and incubated overnight at 37° C.+5% CO2. Media was removed from cells and replaced with assay buffer consisting of the full culture media described above but with 0.1% FBS instead of 10% FBS. Only WM115 cells were stimulated at 37° C.+5% CO2 for 10 min with 5 μL insulin at a final concentration of 100 nM. Cells were incubated with 5 μL of test compound at a final DMSO concentration of 0.3% for 15 min at 37° C.+5% CO2. Cell lysis was carried out according to kit instructions.
(§5) Assay format (performed in subdued lighting): 4 μL cell lysate and 5 μL reaction buffer were incubated together in the dark at room temperature for 2 h. Reaction buffer was supplemented with a 1/5 dilution of activation buffer, a 1/50 dilution of acceptor beads and in the case of the custom kits, antibodies were added at dilutions of 1/20,000 for Akt2 and 1/2,000 for Akt3.
(§6) 2 μL dilution buffer, supplemented with a 1/20 dilution of donor beads was added to each well and incubated for a further 2 h. Plates were read with the EnVision® Multilabel Plate Reader and using the AlphaScreen settings. Compound IC50 was determined using a 4-parameter equation.

The next test deals with T4, p-Akt2 in WM115 cells (Homo sapiens, UniProt P31751).
T4 construct: SureFire assays to detect cellular p-Akt1, p-Akt2 and p-Akt3 levels in WM115 cells (Akt2/3) and LNCaP cells (Akt1); endogenous in cells; host or cells: WM115 (ECACC 91061232), insulin-stimulated
T4 sequence (P31751 whole entry): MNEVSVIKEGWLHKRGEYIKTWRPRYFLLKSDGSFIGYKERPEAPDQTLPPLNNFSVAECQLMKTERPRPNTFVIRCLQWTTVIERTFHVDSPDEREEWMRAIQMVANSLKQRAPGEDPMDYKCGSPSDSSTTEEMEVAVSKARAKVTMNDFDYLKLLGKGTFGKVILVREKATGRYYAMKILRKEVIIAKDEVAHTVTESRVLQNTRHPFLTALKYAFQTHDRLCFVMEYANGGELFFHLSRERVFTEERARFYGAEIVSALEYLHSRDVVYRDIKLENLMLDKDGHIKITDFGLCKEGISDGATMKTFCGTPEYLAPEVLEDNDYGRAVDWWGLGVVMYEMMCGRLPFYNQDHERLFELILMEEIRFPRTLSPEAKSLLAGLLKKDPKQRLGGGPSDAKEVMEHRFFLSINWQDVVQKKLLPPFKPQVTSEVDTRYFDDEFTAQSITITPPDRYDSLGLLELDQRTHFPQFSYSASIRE
The test can be described thus: Phospho-Akt cellular SureFire assay, p-Akt2 in WM115 cells. Type of test: cell-based. As to conditions: insulin stimulated, read-out: Biological Assay 2 IC50 (nM) Akt2 WM115.
Source text: as §2, §3
(§7) Custom kit from TGR/Perkin Elmer for Akt2/3 containing anti-(pThr308)Akt antibody and biotinylated anti-mouse capture antibody.
Total Akt2 antibody (NEB UK, 5239)
(§8) WM115 cells (ECACC, 91061232) cultured in MEM culture media (M2279) supplemented with 2 mM L-glutamine (G7513), 1% non-essential amino acids (M7145), 1% sodium pyruvate (S8636) and 10% FBS (F0804)
as §4, §5, §6

In another test the target is T5, p-Akt3 in WM115 cells (Homo sapiens, UniProt Q9Y243).
T5 construct: SureFire assays to detect cellular p-Akt1, p-Akt2 and p-Akt3 levels in WM115 cells (Akt2/3) and LNCaP cells (Akt1); endogenous in cells; host or cells: WM115 (ECACC 91061232), insulin-stimulated
T5 sequence (Q9Y243 whole entry): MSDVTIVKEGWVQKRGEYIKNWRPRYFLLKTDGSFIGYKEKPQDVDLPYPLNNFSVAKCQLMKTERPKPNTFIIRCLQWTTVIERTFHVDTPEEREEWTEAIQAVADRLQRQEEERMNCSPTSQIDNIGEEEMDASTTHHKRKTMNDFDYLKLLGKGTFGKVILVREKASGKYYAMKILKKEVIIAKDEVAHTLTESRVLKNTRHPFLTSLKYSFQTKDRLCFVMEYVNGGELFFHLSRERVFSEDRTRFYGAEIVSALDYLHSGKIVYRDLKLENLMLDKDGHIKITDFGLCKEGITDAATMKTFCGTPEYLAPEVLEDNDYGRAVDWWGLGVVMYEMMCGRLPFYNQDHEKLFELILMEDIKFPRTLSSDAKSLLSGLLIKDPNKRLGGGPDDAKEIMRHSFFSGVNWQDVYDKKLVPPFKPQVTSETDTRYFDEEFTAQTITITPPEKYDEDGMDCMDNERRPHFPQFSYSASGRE
Description: Phospho-Akt cellular SureFire assay, p-Akt3 in WM115 cells. The conditions noted are these: insulin stimulated, read-out: Biological Assay 2 IC50 (nM) Akt3 WM115. The class given is cell-based.
Source text: as §2, §3, §7
Total Akt3 antibody (R&D Systems MAB 1463)
as §8, §4, §5, §6

The target in another test is T6, Akt1 (Homo sapiens, UniProt P31749).
T6 construct: unspecified tag, removed (detagged) (cleaved yes); purchased SignalChem and Proteros (Akt1); Merck Millipore (PDK1) 14-452 (PDK1); none given for Akt1
T6 sequence (P31749 whole entry): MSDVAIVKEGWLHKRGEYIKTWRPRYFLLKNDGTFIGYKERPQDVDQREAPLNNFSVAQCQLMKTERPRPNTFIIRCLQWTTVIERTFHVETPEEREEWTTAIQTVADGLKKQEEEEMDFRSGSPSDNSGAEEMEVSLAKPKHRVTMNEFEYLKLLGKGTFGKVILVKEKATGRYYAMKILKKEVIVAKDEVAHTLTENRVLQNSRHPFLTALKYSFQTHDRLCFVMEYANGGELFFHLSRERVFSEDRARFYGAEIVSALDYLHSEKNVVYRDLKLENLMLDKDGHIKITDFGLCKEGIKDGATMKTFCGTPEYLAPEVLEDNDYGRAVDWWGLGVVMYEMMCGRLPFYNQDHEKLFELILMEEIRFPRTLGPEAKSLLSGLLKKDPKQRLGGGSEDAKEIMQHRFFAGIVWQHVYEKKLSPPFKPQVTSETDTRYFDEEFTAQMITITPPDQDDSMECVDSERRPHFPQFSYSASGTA
Description: Akt activation assay (PDK1-mediated activation, LANCE Ultra crosstide TR-FRET), Akt1. The class given is biochemical. As to conditions: read-out: Biological Assay 1 IC50 (nM) Akt1. In short, it runs like this: as §1

T1 sequence (P31751 whole entry): as the sequence (P31751 whole entry) above
T2 sequence (Q9Y243 whole entry): as the sequence (Q9Y243 whole entry) above
T3 sequence (P31749 whole entry): as the sequence (P31749 whole entry) above

As for `CC(=O)N[C@H]1CC[C@H](C(C)C(=O)Nc2cnc(-c3ccc(C4(N)CCC4)cc3)c(-c3ccccc3)c2)CC1` (relative stereo) [Example 41, 2-(trans-4-acetamidocyclohexyl)-N-(6-(4-(1-aminocyclobutyl)phenyl)-5-phenylpyridin-3-yl)propanamide], the half-maximal inhibitory concentration (IC50) at Akt2 was 240 nM; on Akt3, 170 nM; at p-Akt1 in LNCaP cells it was more than 30000 nM; on p-Akt2 in WM115 cells, 1500 nM; at p-Akt3 in WM115 cells it was 130 nM.
The like results for `COC(=O)N(C)[C@H]1CC[C@H](C(C)C(=O)Nc2cnc(-c3ccc(C4(N)CCC4)cc3)c(-c3ccccc3)c2)CC1` (relative stereo) [Example 54, Methyl (trans-4-(1-((6-(4-(1-aminocyclobutyl)phenyl)-5-phenylpyridin-3-yl)amino)-1-oxopropan-2-yl)cyclohexyl)(methyl)carbamate] were, in that order, 970 nM, 280 nM, more than 21000 nM, 6400 nM and 240 nM.
As for `CC(C)(N)c1ccc(-c2ncc(NC(=O)C[C@H]3CC[C@H](N4CCCCC4=O)CC3)cc2-c2ccccc2)cc1` [Example 28, N-(6-(4-(2-aminopropan-2-yl)phenyl)-5-phenylpyridin-3-yl)-2-(trans-4-(2-oxopiperidin-1-yl)cyclohexyl)acetamide], the IC50 on Akt1 is more than 30000 nM; on Akt2 it was 7000 nM; on Akt3 it was 440 nM; on p-Akt1 in LNCaP cells it was more than 30000 nM; on p-Akt3 in WM115 cells it was 260 nM.
`CC(=O)N(C)[C@H]1CC[C@H](CC(=O)Nc2cc(-c3ccccc3)c(-c3ccc(C4(N)CCC4)cc3)cn2)CC1` [Example 33, N-(5-(4-(1-aminocyclobutyl)phenyl)-4-phenylpyridin-2-yl)-2-(trans-4-(N-methylacetamido)cyclohexyl)acetamide]: the IC50 on Akt2 came to 540 nM; at Akt3 it was 92 nM; at p-Akt1 in LNCaP cells, 9800 nM; on p-Akt2 in WM115 cells it was 2500 nM; on p-Akt3 in WM115 cells, 100 nM.
Consider `COC(=O)N(C)[C@H]1CC[C@H](CC(=O)Nc2cnc(-c3ccc(C4(N)CC4)c(F)c3)c(-c3ccccc3)c2)CC1` [Example 62, Methyl (trans-4-(2-((6-(4-(1-aminocyclopropyl)-3-fluorophenyl)-5-phenylpyridin-3-yl)amino)-2-oxoethyl)cyclohexyl)(methyl)carbamate], for which the IC50 is more than 30000 nM at Akt1; 2300 nM on Akt2; 170 nM at Akt3; more than 30000 nM on p-Akt1 in LNCaP cells; 360 nM on p-Akt3 in WM115 cells.
In the case of `C[C@]1(O)C[C@@](N)(c2ccc(-c3nnc(NC(=O)C[C@H]4CC[C@H](N5CCOC5=O)CC4)nc3-c3ccccc3F)cc2)C1` [Example 68, N-(6-(4-(trans-1-amino-3-hydroxy-3-methylcyclobutyl)phenyl)-5-(2-fluorophenyl)-1,2,4-triazin-3-yl)-2-(trans-4-(2-oxooxazolidin-3-yl)cyclohexyl)acetamide], the IC50 on Akt1 is 6400 nM; at Akt2, 860 nM; at Akt3, 99 nM; at p-Akt1 in LNCaP cells it was more than 30000 nM; at p-Akt3 in WM115 cells, 410 nM.
Regarding `NC1(c2ccc(-c3ncc(NC(=O)C[C@H]4CC[C@H](N5CCOC5=O)CC4)cc3-c3ccccc3)cc2)CCC1` [Example A27, N-(6-(4-(1-aminocyclobutyl)phenyl)-5-phenylpyridin-3-yl)-2-(trans-4-(2-oxooxazolidin-3-yl)cyclohexyl)acetamide], the IC50 on Akt1 turned out to be 4100 nM; at Akt2 it was 180 nM; at Akt3 it was 19 nM; at p-Akt2 in WM115 cells, 790 nM; on p-Akt3 in WM115 cells it was 51 nM.
With `COC(=O)N(C)[C@H]1CC[C@H](CC(=O)Nc2cc(-c3ccccc3)c(-c3ccc(C(C)(C)N)cc3)cn2)CC1` [Example A48, Methyl (trans-4-(2-((5-(4-(2-aminopropan-2-yl)phenyl)-4-phenylpyridin-2-yl)amino)-2-oxoethyl)cyclohexyl)(methyl)carbamate], the IC50 at p-Akt1 in LNCaP cells was more than 30000 nM; on p-Akt2 in WM115 cells it was more than 30000 nM; at p-Akt3 in WM115 cells it was 1700 nM.
With `CC(=O)N(C)[C@H]1CC[C@H](CC(=O)Nc2cc(-c3ccccc3)c(-c3ccc(C4(N)CCC4)cc3)nn2)CC1` [Example A56, N-(6-(4-(1-aminocyclobutyl)phenyl)-5-phenylpyridazin-3-yl)-2-(trans-4-(N-methylacetamido)cyclohexyl)acetamide], the IC50 at Akt1 came to 11000 nM; at Akt2 it was 270 nM; at Akt3, 7 nM; at p-Akt2 in WM115 cells it was 1300 nM; at p-Akt3 in WM115 cells it was 43 nM.
Regarding `COC(=O)N(C)[C@H]1CC[C@H](CC(=O)Nc2cc(-c3ccccc3)c(-c3ccc(C4(N)CC4)cc3)nn2)CC1` [Example A77, Methyl (trans-4-(2-((6-(4-(1-aminocyclopropyl)phenyl)-5-phenylpyridazin-3-yl)amino)-2-oxoethyl)cyclohexyl)(methyl)carbamate], the concentration for half-maximal inhibition (IC50) is more than 25000 nM on Akt1; 590 nM at Akt2; 22 nM at Akt3; more than 30000 nM at p-Akt1 in LNCaP cells; 240 nM at p-Akt3 in WM115 cells.
Regarding `CCOC(=O)N(C)[C@H]1CC[C@H](CC(=O)Nc2cc(-c3ccsc3)c(-c3ccc([C@]4(N)C[C@](C)(O)C4)cc3)cn2)CC1` [Example A90, Ethyl (trans-4-(2-((5-(4-(trans-1-amino-3-hydroxy-3-methylcyclobutyl)phenyl)-4-(thiophen-3-yl)pyridin-2-yl)amino)-2-oxoethyl)cyclohexyl)(methyl)carbamate], the half-maximal inhibitory concentration (IC50) at Akt1 turned out to be 10000 nM; on Akt2, 300 nM; at Akt3 it was 15 nM; at p-Akt2 in WM115 cells it was 4700 nM; at p-Akt3 in WM115 cells, 180 nM.
The like results for `CCC(=O)N(C)[C@H]1CC[C@H](CC(=O)Nc2cc(-c3ccccc3F)c(-c3ccc(C4(N)CCC4)cc3)cn2)CC1` [Example A102, N-(trans-4-(2-((5-(4-(1-aminocyclobutyl)phenyl)-4-(2-fluorophenyl)pyridin-2-yl)amino)-2-oxoethyl)cyclohexyl)-N-methylpropionamide] were, in that order, more than 19000 nM, 100 nM, 14 nM, 2300 nM and 160 nM.
